Data on one substance can be found in patent US6395782B1, “Method of increasing longevity and preventing body weight wasting in autoimmune disease by using conjugated linoleic acid” (Wisconsin Alumni Research Foundation, priority 2001, dated 2002).

The test system of test [1] is NZB/W F1 mice. Kind of test: CLA diet given after onset of proteinuria in NZB/W F1 mice (SLE model): survival and body weight. In kind it is in vivo. The conditions noted are these: p<0.05. From the text: Materials. Conjugated linoleic acid (Natural Lipids Inc, Hovdebygda, Norway) contained 90% CLA (CLA-90) with the following C18:2 isomer distribution: 43.5% t10,c12, 41.9% c9,t11 and t9,c11, 1.5% t9,t11 and t10,t12, 0.9% c9,c11, 0.9% c10,c12. Other fatty acids in CLA-90 were 5.6% oleate, 1.4% palmitate, 0.5% linoleate, 0.4% stearate, and 3.4% unidentified compounds. All other chemicals and reagents were purchased from Sigma Chemical Co. (St. Louis, Mo.) unless specified.
Diet. Semi-purified powdered diet (TD94060, 99% basal mix, Harlan-Teklad, Madison, Wis.) was mixed with 0.5% oil (either CLA or corn oil) and 0.5% sucrose by weight, such that the final diet contained either 5.5% corn oil (control group) or 5% corn oil plus 0.5% CLA (CLA group) (Park Y et al., Lipids 32, 853 (1997)). […]
Animals. […] Once proteinuria was detected the mice were assigned either the control diet or 0.5% conjugated linoleic acid for the remainder of their life. […]
Feed Intake and Body Weight. Weekly body weight and survival of the mice were recorded from the beginning of the experiment to the time of death.
Urine Collection and Proteinuria Assay. […] Plates were mildly shaken for 5 min and the color reactions were read at 600 nm with a microtiter plate reader (Autoreader EL310, Bio-tek Instrument). […]
Statistical Analysis. […] Positive proteinuria ratio was analyzed by Fisher's exact test using a SAS computer program version 5.

Test [2] deals with SLE patients and rodent models. The experiment in a line: Comparison of CLA with n-3 fatty acids in SLE patients and rodent models. In kind it is in vivo. The conditions noted are these: CLA vs n-3 fatty acids. From the text:
Effects similar to those observed by the applicants can be observed using n-3 fatty acids in SLE patients and rodent models (Fernandes, G., et al., J. Immunol. 152:5979 (1994)). […] To have similar effects of 0.5% diet CLA, as described below, n-3 fatty acids would have to make up about 10% of the diet.

Test [3] deals with NZB/W F1 mice. The conditions noted are these: dietary CLA fed from weaning onward; cited from earlier work.

Conjugated linoleic acid [CLA]: in the test with NZB/W F1 mice [1] (0.5% CLA in diet from detection of proteinuria (1 mg protein/ml urine) until death, vs 5.5% corn oil control diet, female NZB/W F1 mice), the “prolonging of life span (lived longer than control diet)” value is 55%. Moreover, the “reduction of body weight wasting (control lost more body weight than CLA diet)” value with NZB/W F1 mice [1] (0.5% CLA in diet from detection of proteinuria until death, vs control diet, NZB/W F1 mice) was 35%. The “effectiveness relative to n-3 fatty acids in comparable methods” value in test [2] is on record as “about 20 times”. In the test on NZB/W F1 mice [3], the anti-DNA antibody production entry is on record as “does not significantly affect”, the “body weight loss vs control mice” value is listed as “lost less body weight”, the onset of proteinuria entry is “accelerates the onset of proteinuria” and the “survival from the onset of proteinuria vs control mice” value is listed as “lived longer”. Moreover, the “total lifespan vs control animals” value with NZB/W F1 mice [3] was “did not differ”.
